Reference: article PMC10060354, “Discovery of a small molecule ligand of FRS2 that inhibits invasion and tumor growth” (Cellular Oncology, 2022)

Assays:
SKOV3 flank tumors = test: Anti-tumor activity, SKOV3 flank xenograft model; assay type: in vivo, mice; conditions: 200 mg/kg PO once per day
Procedure: SKOV3 model: SKOV3 cells were cultured in McCoy´s 5A (26,600–023, ThermoFisher) media (10%FCS) until P7. Freshly isolated cells (1 × 10^6) with a viability of 98% were subcutaneously transplanted to left flank of 8-week-old female mice in PBS/Matrigel (1:1). […] Tumor diameters were determined by calliper measurements 2 × weekly, body weight (BW) was measured as parameter for tolerability 2 × weekly. For assessing significance of differences between treatments at the individual timepoints, a two-way ANOVA analysis with Turkey’s multiple comparison test was performed.

[1] = Multi-dose MTD with plasma exposure; assay type: in vivo
Procedure: […]. […] Body weights were recorded once daily for 8 days. […] In addition, plasma samples were collected at 0.5, 1, 2 and 5.3 h(s) after the second dose on Day 4 (150 mg/kg, PO; bid × 5 group) and at 0.5, 1, 2 and 6 h(s) after the final dose on Day 5 (200 mg/kg, PO; qd × 5 group). The exposure levels (ng/mL) of 7 in plasma samples were then determined by LC–MS/MS. AUClast was calculated from the area under the plasma concentration–time curve from time zero to time of last measurable concentration.

HCT116 [2] = test: SIA, collagen I invasion; assay type: cell-based; conditions: Homo sapiens, HCT-116, 100 ng/ml bFGF
Procedure: (§1) 1000—2500 cells/well in 100 μl were seeded in 96 well Corning® Spheroid microplate (CLS4520, Sigma-Aldrich) or in cell-repellent 96 well microplate (650,790, Greiner Bio-one). SIA and analysis was performed as described before. In brief: After spheroid formation (24 – 72 h after seeding), 70 µl medium was removed and replaced with the collagen mixture (2.5 mg/ml Pure Col Collagen I (Advanced Biomatrix)), DMEM 1x (from 10 × stock, Sigma, D2429) and 0.4% Sodium bicarbonate (Sigma, S8761)), resulting in a final collagen concentration of 1.75 mg/ml. Embedded spheroids were stimulated with bFGF (100 ng/ml if not otherwise stated), HGF (30 ng /ml) or EGF (20 ng/ml) and distance of invaded cells quantified 24 – 48 h after embedding. Compounds and BGJ398 were added in Dimethylsulfoxid (DMSO) and corresponding DMSO concentrations were used in control samples.

M059K [3] = test: SIA, collagen I invasion; assay type: cell-based; conditions: Homo sapiens, 100 ng/ml bFGF
Procedure: as §1

DAOY siFRS2 cells = test: SIA, bFGF-induced collagen I invasion in FRS2-depleted cells; assay type: cell-based, human
Procedure: as §1
siFRS2 in DAOY cells: 50,000 cells/well in 2 ml medium were seeded in 6 well plates and incubated at 37 °C, 5% CO2. The following day cells were transfected with 10 nM siRNA (5 nM Silencer Select, 5 nM Stealth RNAi siRNA) using Lipofectamin RNAiMAX Transfection Reagent (13,778,075; Invitrogen) and Opti-MEM® medium (15,392,402; Gibco). After 6 h, the medium was exchanged with fresh complete medium and further processed for the SIA protocol.

AGS flank tumors = test: Anti-tumor activity, AGS flank xenograft model; assay type: in vivo
Procedure: In vivo mouse models were generated and experiment with SKOV3 and AGS models performed by EPO, experimental pharmacology & oncology Berlin-Buch GMBH (Berlin, Germany). AGS model: AGS cells were cultured in F12-K medium (10%FCS, 1%PS) until P11. […]. Tumor diameters were determined by calliper measurements 2 × weekly, body weight (BW) was measured as parameter for tolerability 2 × weekly.

RT-112 = test: CellTiter-Glo 3D cell viability; assay type: cell-based; conditions: Homo sapiens, RT-112, 48 h
Procedure: (§2) Cell viability was determined using CellTiter-Glo® 2D or 3D cell viability assays (#G9242, #G9682, Promega). 500 cells/25 µl were seeded in flat bottom (#781,091, Greiner bio-one) or U-low adhesion (#4516, Corning) 384-well plate, 24 h prior to treatment. Increasing concentrations of compounds are deposited on cells using a HP Digital Drug Dispenser with DMSO total volume normalization. After 48 h, the CellTiter-Glo® 2D or 3D reagent was added (volume/volume) following manufacturer’s instructions. Plates were incubated at RT (room temperature) under agitation for 30 min and luminescence representing the number of viable cells was quantified with a Cytation 3 imaging reader (BioTek®). Experiments were performed independently three times with three technical replicas each.

SKOV3 = test: CellTiter-Glo 3D cell viability; assay type: cell-based; conditions: Homo sapiens, SK-OV-3, full growth medium, 48 h
Procedure: as §2

AGS = test: CellTiter-Glo 3D cell viability; assay type: cell-based; conditions: Homo sapiens, full growth medium, 48 h
Procedure: as §2

HCT116 [4] = test: CellTiter-Glo 3D cell viability; assay type: cell-based; conditions: Homo sapiens, HCT-116, full growth medium, 48 h
Procedure: as §2

M059K [5] = test: CellTiter-Glo 3D cell viability; assay type: cell-based; conditions: Homo sapiens, full growth medium, 48 h
Procedure: as §2

DAOY = test: CellTiter-Glo 3D cell viability; assay type: cell-based; conditions: Homo sapiens, full growth medium, 48 h
Procedure: as §2

AKT(pS473) = test: Immunoblotting, AKT phosphorylation; assay type: cell-based, human; conditions: SW780 cells
Procedure: Cells were serum starved o.n. and 10 µM compound or 1 µM (BGJ398) were added 3 h before stimulation with 100 ng/ml bFGF for 15 min. Cells were lysed in RIPA buffer containing protease inhibitor cocktail and lysates resolved by SDS-PAGE. Membranes were probed with primary antibodies against phospho-FRS2, FRS2, phospho-ERK1/2, ERK1/2, pAKT, AKT and tubulin. Integrated density of immuno-reactive bands was quantified using Adobe Photoshop CS3. Integrated densities of phospho bands relative to non-phospho bands of same protein were calculated and plotted as fold-change relative to untreated control conditions. Compounds and BGJ398 were added in DMSO and corresponding DMSO concentrations were used in control samples.

[6] = AGS model, 200 mg/kg PO once per day

## O=[N+]([O-])c1c(Cl)cc(O)c2c1C1C=CCC1C(c1ccc(Cl)cc1)N2 (stereo not drawn) [Compound 7]
SKOV3 flank tumors
  mice with less than average control tumor growth during treatment: six out of the seven
  tumor growth (result in words): significant reduction in tumor growth between d55 and d80
[1]; 200 mg/kg daily for 5 days
  additional body weight loss, days 5-8: 14.6%
  body weight loss, days 1-5: 10%
  multi-dose clinical signs (result in words): induced vocalization, hunchback and decrease in touch response, abdominal and limb tone and low limb post
[1]; 200 mg/kg once daily for 5 days, day five, for at least six h after administration
  plasma concentration reached, multi-dose: 20 µM
[1]; mouse, in vivo
  multi-dose mortality (result in words): No mortality was noted
HCT116 [2]
  EC50: 0.416 µM
M059K [3]
  EC50: 3.28 µM
DAOY siFRS2 cells; Homo sapiens, DAOY siFRS2 (reduced FRS2)
  IC50: 7.96 µM
DAOY siFRS2 cells; siFRS2 vs siCTL
  increase of IC50 in cells with reduced FRS2 compared to control: more than 2.5 fold
AGS flank tumors; 200 mg/kg PO, treatment interrupted for 7 days at day 72
  tolerability in AGS tumor-bearing mice (result in words): signs of toxicity
AGS flank tumors; [6]
  animals with TV reduced at d67 and plateaued between d70 and 77: four out of the six
  average tumor volume (result in words): did not significantly reduce average TV compared to control
RT-112
  IC50: 12.3 µM
SKOV3
  IC50: 9.46 µM
AGS
  IC50: 3.35 µM
HCT116 [4]
  IC50: 4.56 µM
M059K [5]
  IC50: 15.2 µM
DAOY
  IC50: 6.56 µM

## Cc1[nH]nc(-c2ccc(O)c(C)c2O)c1-c1nc2ccccc2s1 [Compound E12]
AKT(pS473)
  pAKT (result in words): increase in pAKT
